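These data come from cells grown in 96-well plates and exposed to compound for 48 hours at five concentrations. GI50 is the concentration that inhibits growth by half.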 The source made the active and inactive calls. No stated cut-off is given here; in the data, active = GI50 up to about 1.1 µM and inactive = higher.
How the values were obtained:
Experiment in all cases: inhibition of tumour cell growth, NCI panel, 48 h
A549 = test system: A549
CCRF-CEM = test system: CCRF-CEM
COLO 205 = test system: COLO 205
EKVX = test system: EKVX
HCC 2998 = test system: HCC 2998
HCT-15 = test system: HCT-15
HL-60 = test system: HL-60
HOP-92 = test system: HOP-92
HT-29 = test system: HT-29
K562 = test system: K562
LOX IMVI = test system: LOX IMVI
MOLT-4 = test system: MOLT-4
NCI-H23 = test system: NCI-H23
OVCAR-4 = test system: OVCAR-4
RXF 393 = test system: RXF 393
SF-295 = test system: SF-295
SF-539 = test system: SF-539
SN12C = test system: SN12C
SNB-75 = test system: SNB-75
UO-31 = test system: UO-31

Structure (SMILES)	GI50 (A549)	GI50 (CCRF-CEM)	GI50 (COLO 205)	GI50 (EKVX)	GI50 (HCC 2998)	GI50 (HCT-15) [µM]	GI50 (HL-60)	GI50 (HOP-92)	GI50 (HT-29)	GI50 (K562)	GI50 (LOX IMVI)	GI50 (MOLT-4)	GI50 (NCI-H23)	GI50 (OVCAR-4)	GI50 (RXF 393)	GI50 (SF-295)	GI50 (SF-539)	GI50 (SN12C)	GI50 (SNB-75)	GI50 (UO-31)
Cc1c(N=NN(C)C)cc[n+]([O-])c1C	> 100 µM (inactive)	> 100 µM (inactive)	> 100 µM (inactive)	> 100 µM (inactive)	> 100 µM (inactive)	> 100	> 100 µM (inactive)	> 100 µM (inactive)	> 100 µM (inactive)	> 100 µM (inactive)	> 100 µM (inactive)	> 100 µM (inactive)	> 100 µM (inactive)	> 100 µM (inactive)	> 100 µM (inactive)	> 100 µM (inactive)	> 100 µM (inactive)	> 100 µM (inactive)	> 49.7 µM (inactive)	> 100 µM (inactive)
C=C/C(C)=C/[C@H](C)C(=O)C[C@H](O)CC1CC(=O)NC(=O)C1	51.3 µM (inactive)	25 µM (inactive)	34.1 µM (inactive)	24.1 µM (inactive)	20.2 µM (inactive)	44.7	20.3 µM (inactive)	21.7 µM (inactive)	34 µM (inactive)	43.4 µM (inactive)	43.1 µM (inactive)	19.8 µM (inactive)	36.9 µM (inactive)	19.6 µM (inactive)	38.5 µM (inactive)	36.1 µM (inactive)	35.1 µM (inactive)	25.5 µM (inactive)	> 55.8 µM (inactive)	48.9 µM (inactive)

Reference: ChEMBL document CHEMBL1201862, “PubChem BioAssay data set” (2004)
